# Laboratory results as given in patent US8445028B2, “Echinoderm-derived extracts, methods of preparation and uses thereof” (Rival, S.E.C., priority 2008, dated 2013).
# Test: Oxygen Radical Absorption Capacity (ORAC) assay, fluorescein/AAPH, Trolox equivalents
# Format: biochemical
# Conditions: pure antioxidants, analyses performed in the present studies; Table IV
# From the text: The Oxygen Radical Absorption Capacity (ORAC) assay is commonly used to measure the antioxidative capacity of various antioxidants. The ORAC assay provides an effective measure of antioxidant protection afforded to physiologically important biomolecules such as proteins. ORAC assays that may be used in the present invention include, for example, those described in U.S. Pat. No. 6,060,324, Methods in Enzymology (1999) 299: 50-62 (Cao and Prior), and Ou et al., 2001. J. Agric. Food Chem. 49: 4619-4626. […] Unless otherwise stated, the ORAC values are expressed as a TroloxTM equivalent value per gram of extract. Antioxidant properties of extracts were estimated using the Oxygen Radical Absorption Capacity (ORAC) method. The analytical procedure has been adapted from a published method (Ou et al., 2001. J. Agric. Food Chem. 49: 4619-4626), using 96-well microplates and a […] spectrofluorometer (Molecular Devices Corporation, Sunnyvale, Calif., USA). After appropriate dilution (typically between 1/100 to 1/1000), a 30-μl aliquot of the extract was added to each well in which 150 μl of 1.04 μM fluorescein and 30 μl of 162 mM 2,2'-azobis (2-amidinopropane) hydrochloride (AAPH) were previously added. TroloxTM (6-hydroxy-2,5,7,8-tetramethylchroman-2-carboxylic acid), a water soluble analog of vitamin E, was used as positive control, and phosphate buffer pH 7.4 was used as the analytical blank. The reactive mixture was incubated at 37.5° C. for 90 min. Final results were calculated as a function of the difference between the surface under the curves between blanks and extracts, and the antioxidant properties expressed as ORAC values in equivalent micromolar of TroloxTM by dry weight of the sample (μmol TE/g extract).
row,Molecule,ORAC values [μmol TE/g dry extract]
1,Cc1c(C)c2c(c(C)c1O)CC[C@@](C)(CCC[C@H](C)CCC[C@H](C)CCCC(C)C)O2 [α-Tocopherol],5657
2,CC1=C(/C=C/C(C)=C/C=C/C(C)=C/C=C/C=C(C)/C=C/C=C(C)/C=C/C2=C(C)CCCC2(C)C)C(C)(C)CCC1 [β-carotene],3183
3,Catechin,16601
